Results on one compound are retold here after US20210283091A1, “DECREASING IMMUNE ACTIVITY THROUGH MODULATION OF POSTCELLULAR SIGNALING FACTORS” (FLAGSHIP PIONEERING INNOVATIONS V, INC., priority 2018, published 2021).

Entries after “also recorded” stand apart in the source; their conditions may differ.

Assay [1] has as its system IRF. Nature of the assay: IRF reporter activity in THP1-Dual monocytes co-cultured with treated A20 cells. It counts as cell-based, human. As to conditions: A20 cells treated 24 hours, then co-culture with THP1-Dual cells 24 hours. As to the method:
(§1) A20 B-cell leukemia cells were treated with either control (DMSO) or various doses of RSL3, for 24 hours prior to co-culture with THP1-Dual cells for an additional 24 hours. RSL3 was purchased from Selleckchem (Houston, Tex.) and dissolved in DMSO. Subsequently, the THP1 supernatants were assessed for NFKB or IRF reporter activity. A20 cells were acquired from ATCC and THP1-Dual cells acquired from InvivoGen (San Diego, Calif.). Both cell types were cultured in 96-well plates for the duration of the assay. 50,000 A20 cells were plated 24 hours prior to dosing with RSL3, with a final DMSO concentration of 0.5%. 24 hours post-treatment, THP1-Dual cells (25,000 cells/well) were added to the A20 cells. 24 hours later, 30 μl of supernatant was mixed with either 200 μl QuantiBlue (InvivoGen, San Diego, Calif.) or 50 μl QuantiLuc and absorbance or luminescence was recorded on a Molecular Devices plate reader.

Assay [2] relates to NFKB. Nature of the assay: NFKB reporter activity in THP1-Dual monocytes co-cultured with treated Caki-1 cells. As to conditions: Caki-1 cells treated 24 hours, then co-culture with THP1-Dual cells 24 hours. It counts as cell-based, human. As to the method: Caki-1 renal cell carcinoma cells were treated with either control (DMSO) or various doses of Erastin, for 24 hours prior to co-culture with THP1-Dual cells for an additional 24 hours. Erastin was purchased from Selleckchem (Houston, Tex.) and dissolved in DMSO. Subsequently, the THP1 supernatants were assessed for NFKB or IRF reporter activity. Caki-1 cells were acquired from ATCC and THP1-Dual cells acquired from InvivoGen (San Diego, Calif.). Both cell types were cultured in 96-well plates for the duration of the assay. 7.500 Caki-1 cells were plated 24 hours prior to dosing with Erastin, with a final DMSO concentration of 0.5%. 24 hours post-treatment, THP1-Dual cells (25,000 cells/well) were added to the Caki-1 cells. 24 hours later, 30 μl of supernatant was mixed with either 200 μl QuantiBlue (InvivoGen) or 50 μl QuantiLuc and absorbance or luminescence was recorded on a Molecular Devices plate reader. Caki-1 renal cell carcinoma cells were treated with either control (DMSO) or various doses of RSL3, for 24 hours prior to co-culture with THP1-Dual cells for an additional 24 hours. RSL3 was purchased from Selleckchem and dissolved in DMSO. Subsequently, the THP1 supernatants were assessed for NFKB or IRF reporter activity. Caki-1 cells were acquired from ATCC and THP1-Dual cells acquired from InvivoGen (San Diego, Calif.). Both cell types were cultured in 96-well plates for the duration of the assay. 7.500 Caki-1 cells were plated 24 hours prior to dosing with […], with a final DMSO concentration of 0.5%. 24 hours post-treatment, THP1-Dual cells (25,000 cells/well) were added to the Caki-1 cells. 24 hours later, 30 μl of supernatant was mixed with either 200 μl QuantiBlue (InvivoGen, San Diego, Calif.) or 50 μl QuantiFuc and absorbance or luminescence was recorded on a Molecular Devices plate reader. […] Subsequently, the THP1 supernatant was assessed for NFKB reporter activity. […]

Assay [3] deals with Jurkat T cell leukemia cells. Nature of the assay: Viability of Jurkat T cell leukemia cells treated with RSL3. It counts as cell-based. As to conditions: various doses, 24 hours treatment.
The test system of assay [4] is NFKB. Nature of the assay: NFKB reporter activity in THP1-Dual monocytes co-cultured with treated A20 cells. As to conditions: A20 cells treated 24 hours, then co-culture with THP1-Dual cells 24 hours. It counts as cell-based, human. How it is done: A20 B-cell leukemia cells were treated with either control (DMSO) or various doses of RSL3, for 24 hours prior to co-culture with THP1-Dual cells for an additional 24 hours. RSL3 was purchased from Selleckchem (Houston, Tex.) and dissolved in DMSO. Subsequently, the THP1 supernatants were assessed for NFKB or IRF reporter activity.
A20 cells were acquired from ATCC and THP1-Dual cells acquired from InvivoGen (San Diego, Calif.). Both cell types were cultured in 96-well plates for the duration of the assay. 50,000 A20 cells were plated 24 hours prior to dosing with RSL3, with a final DMSO concentration of 0.5%. 24 hours post-treatment, THP1-Dual cells (25,000 cells/well) were added to the A20 cells. 24 hours later, 30 μl of supernatant was mixed with either 200 μl QuantiBlue (InvivoGen, San Diego, Calif.) or 50 μl QuantiLuc and absorbance or luminescence was recorded on a Molecular Devices plate reader.
A20 lymphoma cells were treated with various doses (e.g. 0.002, 0.005, 0.014, 0.041, 0.123, 0.370, 1.111, 3.333 and 10 μM) of a GPX4 inhibitor (RSL3, ML162 or ML210) in the presence or absence of 1 μM Ferrostatin-1 for 24 hours. ML162 was purchased from Cayman Chemical Company Inc and resuspended in DMSO. ML210 was purchased from Sigma-Aldrich and resuspended in DMSO. A20 lymphoma cells were also treated with DMSO as a negative control. After treatment with DMSO or a GPX4 inhibitor for 24 hours, the A20 lymphoma cells were co-cultured with THP1-Dual cells for an additional 24 hours. Subsequently, the THP1 supernatant was assessed for NFKB reporter activity. A20 cells were acquired from ATCC and THP1-Dual cells were acquired from InvivoGen (San Diego, Calif.). Both cell types were cultured in 96-well plates for the duration of the assay.

Assay [5] has as its system Caki-1 renal cell carcinoma cells. Nature of the assay: Viability of Caki-1 renal cell carcinoma cells treated with ferroptosis inducer, with or without Ferrostatin-1. It counts as cell-based. As to conditions: various doses, 24 hours treatment.
Assay [6] deals with NFKB. Nature of the assay: NFKB reporter activity in THP1-Dual monocytes co-cultured with treated Jurkat cells. As to conditions: Jurkat cells treated 24 hours, then co-culture with THP1-Dual cells 24 hours. It counts as cell-based, human. As to the method:
as §1, with “Jurkat T cell” for “A20 B-cell”, “Jurkat” for “A20”, “100,000 Jurkat” for “50,000 A20”

In assay [7] the test system is A20 B-cell leukemia cells. Nature of the assay: Viability of A20 cells treated with GPX4 inhibitor, with or without Ferrostatin-1. As to conditions: various doses, 24 hours treatment. It counts as cell-based.

Regarding `COC(=O)c1ccc([C@H]2c3[nH]c4ccccc4c3C[C@H](C(=O)OC)N2C(=O)CCl)cc1` [RSL3], the “IRF signaling in THP1 monocytes” value in assay [1] was “elicited”. The “NFKB signaling in THP1 monocytes” value was “elicited NFKB signaling; also recorded: increased NFKB activity in THP1 cells in a dose dependent manner” in assay [2], “elicited NFKB; also recorded: increased NFKB activity in THP1 cells in a dose dependent manner” in assay [4] and “elicited NFKB signaling” in assay [6]. In addition, in assay [3], the “viability of Jurkat T cell leukemia cells” value was “negatively affected the viability”. In addition, the “viability of Caki-1 cells” value in assay [5] was “negatively affected the viability; also recorded: decreased viability of the cells in a dose dependent manner”. The “viability of A20 cells” value in assay [7] was “negatively affected the viability; also recorded: decreased viability of the cells in a dose dependent manner”.
